# Measurements reported in ChEMBL document CHEMBL5303573, “Mapping human microbiome drug metabolism by gut bacteria and their genes” (Nature, 2019).
# Settings: bifidobacterium adolescentis, 12 h, 2 µM
# Description: The drug is tested on Bifidobacterium adolescentis strain: ATCC 15703 for biotransformation. The drug concentrations were measured before and after a 12-h incubation by liquid-chromatography-coupled mass spectrometry (LC–MS)
row,SMILES,Bacterial Biotransformation
1,CC(C)(C)NCC(O)c1cc(Cl)c(N)c(Cl)c1 (stereo not given) [CLENBUTEROL],Compound NOT metabolized
2,CCN(CC)C(=O)/C(C#N)=C/c1cc(O)c(O)c([N+](=O)[O-])c1 [ENTACAPONE],Compound metabolized
3,N[C@@H](Cc1ccc(N(CCCl)CCCl)cc1)C(=O)O,Compound metabolized
4,CC(=O)OCC(=O)NCCCOc1cccc(CN2CCCCC2)c1 [ROXATIDINE ACETATE],Compound metabolized

# Assay: The drug is tested on Enterococcus faecalis strain: V583 for biotransformation. The drug concentrations were measured before and after a 12-h incubation by liquid-chromatography-coupled mass spectrometry (LC–MS)
# Settings: 2 µM
row,SMILES,Bacterial Biotransformation
1,CC(C)(C)NCC(O)c1cc(Cl)c(N)c(Cl)c1 (stereo not given) [CLENBUTEROL],Compound NOT metabolized
2,CCN(CC)C(=O)/C(C#N)=C/c1cc(O)c(O)c([N+](=O)[O-])c1 [ENTACAPONE],Compound metabolized
3,N[C@@H](Cc1ccc(N(CCCl)CCCl)cc1)C(=O)O,Compound metabolized
4,CC(=O)OCC(=O)NCCCOc1cccc(CN2CCCCC2)c1 [ROXATIDINE ACETATE],Compound metabolized

# Assay: The drug is tested on Ruminococcus gnavus strain: ATCC29149 for biotransformation. The drug concentrations were measured before and after a 12-h incubation by liquid-chromatography-coupled mass spectrometry (LC–MS)
# Settings: mediterraneibacter gnavus, 2 µM
row,SMILES,Bacterial Biotransformation
1,CC(C)(C)NCC(O)c1cc(Cl)c(N)c(Cl)c1 (stereo not given) [CLENBUTEROL],Compound NOT metabolized
2,CCN(CC)C(=O)/C(C#N)=C/c1cc(O)c(O)c([N+](=O)[O-])c1 [ENTACAPONE],Compound metabolized
3,N[C@@H](Cc1ccc(N(CCCl)CCCl)cc1)C(=O)O,Compound metabolized
4,CC(=O)OCC(=O)NCCCOc1cccc(CN2CCCCC2)c1 [ROXATIDINE ACETATE],Compound NOT metabolized

# Assay: The drug is tested on Parabacteroides merdae strain: ATCC43184 for biotransformation. The drug concentrations were measured before and after a 12-h incubation by liquid-chromatography-coupled mass spectrometry (LC–MS)
# Settings: 2 µM
row,SMILES,Bacterial Biotransformation
1,CC(C)(C)NCC(O)c1cc(Cl)c(N)c(Cl)c1 (stereo not given) [CLENBUTEROL],Compound NOT metabolized
2,CCN(CC)C(=O)/C(C#N)=C/c1cc(O)c(O)c([N+](=O)[O-])c1 [ENTACAPONE],Compound metabolized
3,N[C@@H](Cc1ccc(N(CCCl)CCCl)cc1)C(=O)O,Compound metabolized
4,CC(=O)OCC(=O)NCCCOc1cccc(CN2CCCCC2)c1 [ROXATIDINE ACETATE],Compound metabolized

# Assay: The drug is tested on Anaerotruncus colihominis strain: DSM17241 for biotransformation. The drug concentrations were measured before and after a 12-h incubation by liquid-chromatography-coupled mass spectrometry (LC–MS)
# Settings: 2 µM
row,SMILES,Bacterial Biotransformation
1,CC(C)(C)NCC(O)c1cc(Cl)c(N)c(Cl)c1 (stereo not given) [CLENBUTEROL],Compound NOT metabolized
2,CCN(CC)C(=O)/C(C#N)=C/c1cc(O)c(O)c([N+](=O)[O-])c1 [ENTACAPONE],Compound metabolized
3,N[C@@H](Cc1ccc(N(CCCl)CCCl)cc1)C(=O)O,Compound metabolized
4,CC(=O)OCC(=O)NCCCOc1cccc(CN2CCCCC2)c1 [ROXATIDINE ACETATE],Compound metabolized

# Assay: The drug is tested on Ruminococcus torques strain: ATCC27756 for biotransformation. The drug concentrations were measured before and after a 12-h incubation by liquid-chromatography-coupled mass spectrometry (LC–MS)
# Assay type: ADME
# Design: dose 2 uM, timepoint 0 vs 12 hours
# Settings: 2 µM
row,SMILES,Bacterial Biotransformation
1,CC(C)(C)NCC(O)c1cc(Cl)c(N)c(Cl)c1 (stereo not given) [CLENBUTEROL],Compound NOT metabolized
2,CCN(CC)C(=O)/C(C#N)=C/c1cc(O)c(O)c([N+](=O)[O-])c1 [ENTACAPONE],Compound metabolized
3,N[C@@H](Cc1ccc(N(CCCl)CCCl)cc1)C(=O)O,Compound metabolized
4,CC(=O)OCC(=O)NCCCOc1cccc(CN2CCCCC2)c1 [ROXATIDINE ACETATE],Compound metabolized

# Assay: The drug is tested on Bacteroides dorei strain: DSM17855 for biotransformation. The drug concentrations were measured before and after a 12-h incubation by liquid-chromatography-coupled mass spectrometry (LC–MS)
# Settings: phocaeicola dorei, 2 µM
row,SMILES,Bacterial Biotransformation
1,CC(C)(C)NCC(O)c1cc(Cl)c(N)c(Cl)c1 (stereo not given) [CLENBUTEROL],Compound NOT metabolized
2,CCN(CC)C(=O)/C(C#N)=C/c1cc(O)c(O)c([N+](=O)[O-])c1 [ENTACAPONE],Compound metabolized
3,N[C@@H](Cc1ccc(N(CCCl)CCCl)cc1)C(=O)O,Compound metabolized
4,CC(=O)OCC(=O)NCCCOc1cccc(CN2CCCCC2)c1 [ROXATIDINE ACETATE],Compound metabolized

# Assay: The drug is tested on Bacteroides coprophilus strain: DSM18228 for biotransformation. The drug concentrations were measured before and after a 12-h incubation by liquid-chromatography-coupled mass spectrometry (LC–MS)
# Settings: 2 µM
row,SMILES,Bacterial Biotransformation
1,CC(C)(C)NCC(O)c1cc(Cl)c(N)c(Cl)c1 (stereo not given) [CLENBUTEROL],Compound NOT metabolized
2,CCN(CC)C(=O)/C(C#N)=C/c1cc(O)c(O)c([N+](=O)[O-])c1 [ENTACAPONE],Compound metabolized
3,N[C@@H](Cc1ccc(N(CCCl)CCCl)cc1)C(=O)O,Compound metabolized
4,CC(=O)OCC(=O)NCCCOc1cccc(CN2CCCCC2)c1 [ROXATIDINE ACETATE],Compound metabolized

# Assay: The drug is tested on Bacteroides pectinophilus strain: ATCC43243 for biotransformation. The drug concentrations were measured before and after a 12-h incubation by liquid-chromatography-coupled mass spectrometry (LC–MS)
# Settings: 2 µM
row,SMILES,Bacterial Biotransformation
1,CC(C)(C)NCC(O)c1cc(Cl)c(N)c(Cl)c1 (stereo not given) [CLENBUTEROL],Compound NOT metabolized
2,CCN(CC)C(=O)/C(C#N)=C/c1cc(O)c(O)c([N+](=O)[O-])c1 [ENTACAPONE],Compound metabolized
3,N[C@@H](Cc1ccc(N(CCCl)CCCl)cc1)C(=O)O,Compound metabolized
4,CC(=O)OCC(=O)NCCCOc1cccc(CN2CCCCC2)c1 [ROXATIDINE ACETATE],Compound metabolized

# Assay: The drug is tested on Anaerococcus hydrogenalis strain: DSM7454 for biotransformation. The drug concentrations were measured before and after a 12-h incubation by liquid-chromatography-coupled mass spectrometry (LC–MS)
# Settings: 2 µM
row,SMILES,Bacterial Biotransformation
1,CC(C)(C)NCC(O)c1cc(Cl)c(N)c(Cl)c1 (stereo not given) [CLENBUTEROL],Compound NOT metabolized
2,CCN(CC)C(=O)/C(C#N)=C/c1cc(O)c(O)c([N+](=O)[O-])c1 [ENTACAPONE],Compound metabolized
3,N[C@@H](Cc1ccc(N(CCCl)CCCl)cc1)C(=O)O,Compound metabolized
4,CC(=O)OCC(=O)NCCCOc1cccc(CN2CCCCC2)c1 [ROXATIDINE ACETATE],Compound metabolized

# Assay: The drug is tested on Providencia stuartii strain: ATCC25827 for biotransformation. The drug concentrations were measured before and after a 12-h incubation by liquid-chromatography-coupled mass spectrometry (LC–MS)
# Settings: 2 µM
row,SMILES,Bacterial Biotransformation
1,CC(C)(C)NCC(O)c1cc(Cl)c(N)c(Cl)c1 (stereo not given) [CLENBUTEROL],Compound NOT metabolized
2,CCN(CC)C(=O)/C(C#N)=C/c1cc(O)c(O)c([N+](=O)[O-])c1 [ENTACAPONE],Compound metabolized
3,N[C@@H](Cc1ccc(N(CCCl)CCCl)cc1)C(=O)O,Compound metabolized
4,CC(=O)OCC(=O)NCCCOc1cccc(CN2CCCCC2)c1 [ROXATIDINE ACETATE],Compound metabolized

# Assay: The drug is tested on Bacteroides uniformis strain: ATCC8492 for biotransformation. The drug concentrations were measured before and after a 12-h incubation by liquid-chromatography-coupled mass spectrometry (LC–MS)
# Settings: 2 µM
row,SMILES,Bacterial Biotransformation
1,CC(C)(C)NCC(O)c1cc(Cl)c(N)c(Cl)c1 (stereo not given) [CLENBUTEROL],Compound NOT metabolized
2,CCN(CC)C(=O)/C(C#N)=C/c1cc(O)c(O)c([N+](=O)[O-])c1 [ENTACAPONE],Compound metabolized
3,N[C@@H](Cc1ccc(N(CCCl)CCCl)cc1)C(=O)O,Compound metabolized
4,CC(=O)OCC(=O)NCCCOc1cccc(CN2CCCCC2)c1 [ROXATIDINE ACETATE],Compound metabolized

# Assay: The drug is tested on Bacteroides ovatus strain: ATCC8483 for biotransformation. The drug concentrations were measured before and after a 12-h incubation by liquid-chromatography-coupled mass spectrometry (LC–MS)
# Settings: 2 µM
row,SMILES,Bacterial Biotransformation
1,CC(C)(C)NCC(O)c1cc(Cl)c(N)c(Cl)c1 (stereo not given) [CLENBUTEROL],Compound NOT metabolized
2,CCN(CC)C(=O)/C(C#N)=C/c1cc(O)c(O)c([N+](=O)[O-])c1 [ENTACAPONE],Compound metabolized
3,N[C@@H](Cc1ccc(N(CCCl)CCCl)cc1)C(=O)O,Compound metabolized
4,CC(=O)OCC(=O)NCCCOc1cccc(CN2CCCCC2)c1 [ROXATIDINE ACETATE],Compound metabolized

# Settings: parabacteroides johnsonii, 12 h, 2 µM
# Description: The drug is tested on Parabacteroides johnsonii strain: DSM18315 for biotransformation. The drug concentrations were measured before and after a 12-h incubation by liquid-chromatography-coupled mass spectrometry (LC–MS)
row,SMILES,Bacterial Biotransformation
1,CC(C)(C)NCC(O)c1cc(Cl)c(N)c(Cl)c1 (stereo not given) [CLENBUTEROL],Compound NOT metabolized
2,CCN(CC)C(=O)/C(C#N)=C/c1cc(O)c(O)c([N+](=O)[O-])c1 [ENTACAPONE],Compound metabolized
3,N[C@@H](Cc1ccc(N(CCCl)CCCl)cc1)C(=O)O,Compound metabolized
4,CC(=O)OCC(=O)NCCCOc1cccc(CN2CCCCC2)c1 [ROXATIDINE ACETATE],Compound metabolized

# Assay: The drug is tested on Eubacterium rectale strain: ATCC33656 for biotransformation. The drug concentrations were measured before and after a 12-h incubation by liquid-chromatography-coupled mass spectrometry (LC–MS)
# Settings: agathobacter rectalis, 2 µM
row,SMILES,Bacterial Biotransformation
1,CC(C)(C)NCC(O)c1cc(Cl)c(N)c(Cl)c1 (stereo not given) [CLENBUTEROL],Compound NOT metabolized
2,CCN(CC)C(=O)/C(C#N)=C/c1cc(O)c(O)c([N+](=O)[O-])c1 [ENTACAPONE],Compound metabolized
3,N[C@@H](Cc1ccc(N(CCCl)CCCl)cc1)C(=O)O,Compound metabolized
4,CC(=O)OCC(=O)NCCCOc1cccc(CN2CCCCC2)c1 [ROXATIDINE ACETATE],Compound NOT metabolized

# Assay: The drug is tested on Clostridium ramosum strain: DSM1402 for biotransformation. The drug concentrations were measured before and after a 12-h incubation by liquid-chromatography-coupled mass spectrometry (LC–MS)
# Settings: thomasclavelia ramosa, 2 µM
row,SMILES,Bacterial Biotransformation
1,CC(C)(C)NCC(O)c1cc(Cl)c(N)c(Cl)c1 (stereo not given) [CLENBUTEROL],Compound NOT metabolized
2,CCN(CC)C(=O)/C(C#N)=C/c1cc(O)c(O)c([N+](=O)[O-])c1 [ENTACAPONE],Compound metabolized
3,N[C@@H](Cc1ccc(N(CCCl)CCCl)cc1)C(=O)O,Compound metabolized
4,CC(=O)OCC(=O)NCCCOc1cccc(CN2CCCCC2)c1 [ROXATIDINE ACETATE],Compound metabolized

# Settings: limosilactobacillus reuteri cf48-3a, 12 h, 2 µM
# Description: The drug is tested on Lactobacillus reuteri CF48-3A strain: BEI HM-102 for biotransformation. The drug concentrations were measured before and after a 12-h incubation by liquid-chromatography-coupled mass spectrometry (LC–MS)
row,SMILES,Bacterial Biotransformation
1,CC(C)(C)NCC(O)c1cc(Cl)c(N)c(Cl)c1 (stereo not given) [CLENBUTEROL],Compound NOT metabolized
2,CCN(CC)C(=O)/C(C#N)=C/c1cc(O)c(O)c([N+](=O)[O-])c1 [ENTACAPONE],Compound metabolized
3,N[C@@H](Cc1ccc(N(CCCl)CCCl)cc1)C(=O)O,Compound metabolized
4,CC(=O)OCC(=O)NCCCOc1cccc(CN2CCCCC2)c1 [ROXATIDINE ACETATE],Compound NOT metabolized

# Settings: bacteroides fragilis, 12 h, 2 µM
# Description: The drug is tested on Bacteroides fragilis strain: NCTC 9343 for biotransformation. The drug concentrations were measured before and after a 12-h incubation by liquid-chromatography-coupled mass spectrometry (LC–MS)
row,SMILES,Bacterial Biotransformation
1,CC(C)(C)NCC(O)c1cc(Cl)c(N)c(Cl)c1 (stereo not given) [CLENBUTEROL],Compound NOT metabolized
2,CCN(CC)C(=O)/C(C#N)=C/c1cc(O)c(O)c([N+](=O)[O-])c1 [ENTACAPONE],Compound metabolized
3,N[C@@H](Cc1ccc(N(CCCl)CCCl)cc1)C(=O)O,Compound metabolized
4,CC(=O)OCC(=O)NCCCOc1cccc(CN2CCCCC2)c1 [ROXATIDINE ACETATE],Compound metabolized

# Assay: The drug is tested on Alistipes indistinctus strain: DSM22520 for biotransformation. The drug concentrations were measured before and after a 12-h incubation by liquid-chromatography-coupled mass spectrometry (LC–MS)
# Settings: 2 µM
row,SMILES,Bacterial Biotransformation
1,CC(C)(C)NCC(O)c1cc(Cl)c(N)c(Cl)c1 (stereo not given) [CLENBUTEROL],Compound NOT metabolized
2,CCN(CC)C(=O)/C(C#N)=C/c1cc(O)c(O)c([N+](=O)[O-])c1 [ENTACAPONE],Compound metabolized
3,N[C@@H](Cc1ccc(N(CCCl)CCCl)cc1)C(=O)O,Compound metabolized
4,CC(=O)OCC(=O)NCCCOc1cccc(CN2CCCCC2)c1 [ROXATIDINE ACETATE],Compound metabolized

# Assay: The drug is tested on Edwardsiella tarda strain: ATCC23685 for biotransformation. The drug concentrations were measured before and after a 12-h incubation by liquid-chromatography-coupled mass spectrometry (LC–MS)
# Settings: 2 µM
row,SMILES,Bacterial Biotransformation
1,CC(C)(C)NCC(O)c1cc(Cl)c(N)c(Cl)c1 (stereo not given) [CLENBUTEROL],Compound NOT metabolized
2,CCN(CC)C(=O)/C(C#N)=C/c1cc(O)c(O)c([N+](=O)[O-])c1 [ENTACAPONE],Compound metabolized
3,N[C@@H](Cc1ccc(N(CCCl)CCCl)cc1)C(=O)O,Compound metabolized
4,CC(=O)OCC(=O)NCCCOc1cccc(CN2CCCCC2)c1 [ROXATIDINE ACETATE],Compound metabolized
